enrich.exp.med.lin, enrich.exp.med.log2 and enrich.exp.med data for 1 molecule are collected here from PMC10176470, “Engaging a Non-catalytic Cysteine Residue Drives Potent and Selective Inhibition of Caspase-6” (Journal of the American Chemical Society, 2023).

Holding throughout (format): cell-based
Assay [1] deals with T1, proteins of HEK293T cells transiently overexpressing caspase-6 (Homo sapiens, UniProt O95197).
T1 sequence (O95197 1-1032): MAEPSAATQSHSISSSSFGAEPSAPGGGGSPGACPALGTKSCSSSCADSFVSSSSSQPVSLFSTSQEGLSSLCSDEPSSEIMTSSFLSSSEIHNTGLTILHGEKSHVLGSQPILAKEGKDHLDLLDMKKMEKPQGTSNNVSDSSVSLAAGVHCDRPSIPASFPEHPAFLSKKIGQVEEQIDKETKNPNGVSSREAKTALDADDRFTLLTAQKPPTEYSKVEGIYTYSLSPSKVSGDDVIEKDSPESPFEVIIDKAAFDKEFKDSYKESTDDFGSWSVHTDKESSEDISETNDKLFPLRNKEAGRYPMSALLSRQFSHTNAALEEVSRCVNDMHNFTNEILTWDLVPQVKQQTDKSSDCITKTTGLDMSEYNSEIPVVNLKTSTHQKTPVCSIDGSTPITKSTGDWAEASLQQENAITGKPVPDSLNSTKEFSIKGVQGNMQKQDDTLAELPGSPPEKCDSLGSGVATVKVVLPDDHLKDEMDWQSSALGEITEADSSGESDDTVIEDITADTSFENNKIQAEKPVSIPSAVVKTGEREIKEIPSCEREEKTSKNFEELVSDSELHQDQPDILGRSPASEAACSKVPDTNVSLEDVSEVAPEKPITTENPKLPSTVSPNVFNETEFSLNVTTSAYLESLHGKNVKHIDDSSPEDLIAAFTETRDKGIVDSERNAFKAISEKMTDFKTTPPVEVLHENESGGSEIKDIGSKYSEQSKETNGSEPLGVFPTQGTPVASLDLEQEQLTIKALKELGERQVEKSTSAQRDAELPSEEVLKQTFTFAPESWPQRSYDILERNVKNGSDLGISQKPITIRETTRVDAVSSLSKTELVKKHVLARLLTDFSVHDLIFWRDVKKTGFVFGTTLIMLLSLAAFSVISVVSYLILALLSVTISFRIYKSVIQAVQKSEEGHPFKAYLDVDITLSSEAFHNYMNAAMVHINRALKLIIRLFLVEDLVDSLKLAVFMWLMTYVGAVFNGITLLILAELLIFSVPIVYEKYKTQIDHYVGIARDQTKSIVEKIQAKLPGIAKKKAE
The settings on record: protein RTN3 (O95197).

Assay [2] addresses T2, proteins of HEK293T cells transiently overexpressing caspase-6 (Homo sapiens, UniProt P45880).
T2 sequence (P45880 1-294): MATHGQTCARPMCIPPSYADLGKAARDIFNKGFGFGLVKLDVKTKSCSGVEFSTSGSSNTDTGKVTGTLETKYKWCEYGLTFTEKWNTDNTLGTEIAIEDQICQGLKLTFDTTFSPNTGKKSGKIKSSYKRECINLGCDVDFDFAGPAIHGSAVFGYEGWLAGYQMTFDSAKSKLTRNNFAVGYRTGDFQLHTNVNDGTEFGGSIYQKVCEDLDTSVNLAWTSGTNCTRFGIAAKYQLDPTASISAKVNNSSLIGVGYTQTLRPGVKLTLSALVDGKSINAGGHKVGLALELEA
The settings on record: protein VDAC2 (P45880).

Assay [3] has as its target T3, proteins of HEK293T cells transiently overexpressing caspase-6 (Homo sapiens, UniProt P46977).
T3 sequence (P46977 1-705): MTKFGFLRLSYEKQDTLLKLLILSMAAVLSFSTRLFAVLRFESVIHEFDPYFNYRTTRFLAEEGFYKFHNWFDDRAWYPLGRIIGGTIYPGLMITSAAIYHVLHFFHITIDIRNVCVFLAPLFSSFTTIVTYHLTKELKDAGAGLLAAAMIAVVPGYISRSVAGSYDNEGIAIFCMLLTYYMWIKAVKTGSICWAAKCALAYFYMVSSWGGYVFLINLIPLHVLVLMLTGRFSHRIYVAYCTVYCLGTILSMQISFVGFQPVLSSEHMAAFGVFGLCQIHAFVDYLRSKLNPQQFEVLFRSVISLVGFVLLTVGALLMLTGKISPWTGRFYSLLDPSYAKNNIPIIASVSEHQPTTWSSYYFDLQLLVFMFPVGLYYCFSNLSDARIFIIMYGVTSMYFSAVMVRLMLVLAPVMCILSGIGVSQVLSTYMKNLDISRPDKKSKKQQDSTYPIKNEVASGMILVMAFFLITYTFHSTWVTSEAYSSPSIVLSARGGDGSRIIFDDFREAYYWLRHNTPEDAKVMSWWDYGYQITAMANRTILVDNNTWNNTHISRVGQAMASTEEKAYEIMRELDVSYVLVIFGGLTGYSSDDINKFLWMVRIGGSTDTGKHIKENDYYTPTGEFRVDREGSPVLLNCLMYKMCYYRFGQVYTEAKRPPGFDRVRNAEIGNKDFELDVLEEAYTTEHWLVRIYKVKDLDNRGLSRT
The settings on record: protein STT3A (P46977).

Assay [4] concerns the target proteins of HEK293T cells transiently overexpressing caspase-6 (Homo sapiens, UniProt Q9NR30). The settings on record: exp_ref Probe; protein DDX21 (Q9NR30); analysis C6.
In assay [5] the target is proteins of HEK293T cells transiently overexpressing caspase-6 (Homo sapiens, UniProt P18621). As to conditions: exp_ref Probe; protein RPL17 (P18621); analysis C6.
In assay [6] the target is proteins of HEK293T cells transiently overexpressing caspase-6 (Homo sapiens, UniProt P08133). The settings on record: exp_ref Probe; protein ANXA6 (P08133); analysis C6.
Sequence of proteins of HEK293T cells transiently overexpressing caspase-6 (Homo sapiens, UniProt P08133) (P08133 whole entry): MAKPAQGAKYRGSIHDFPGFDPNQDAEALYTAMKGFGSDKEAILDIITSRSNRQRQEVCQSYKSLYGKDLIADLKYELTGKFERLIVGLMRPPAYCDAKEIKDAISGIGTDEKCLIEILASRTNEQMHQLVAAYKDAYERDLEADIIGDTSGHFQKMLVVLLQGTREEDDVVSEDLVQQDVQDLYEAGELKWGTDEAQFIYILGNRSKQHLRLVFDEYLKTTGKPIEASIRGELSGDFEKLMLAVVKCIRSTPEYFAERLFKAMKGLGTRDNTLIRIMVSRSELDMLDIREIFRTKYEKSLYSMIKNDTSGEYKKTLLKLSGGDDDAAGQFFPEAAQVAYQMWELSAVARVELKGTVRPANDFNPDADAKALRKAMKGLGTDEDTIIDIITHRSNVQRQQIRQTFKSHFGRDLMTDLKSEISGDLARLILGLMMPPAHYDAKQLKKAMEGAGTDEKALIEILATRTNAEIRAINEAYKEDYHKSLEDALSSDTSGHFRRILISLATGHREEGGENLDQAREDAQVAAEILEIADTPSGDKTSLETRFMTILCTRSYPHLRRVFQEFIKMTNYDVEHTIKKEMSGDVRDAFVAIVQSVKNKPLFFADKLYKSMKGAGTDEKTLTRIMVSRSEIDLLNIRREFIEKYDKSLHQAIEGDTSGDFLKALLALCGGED
The target in assay [7] is proteins of HEK293T cells transiently overexpressing caspase-6 (Homo sapiens, UniProt Q07812). As to conditions: Probe; protein BAX Q07812.
Sequence of proteins of HEK293T cells transiently overexpressing caspase-6 (Homo sapiens, UniProt Q07812) (Q07812 whole entry): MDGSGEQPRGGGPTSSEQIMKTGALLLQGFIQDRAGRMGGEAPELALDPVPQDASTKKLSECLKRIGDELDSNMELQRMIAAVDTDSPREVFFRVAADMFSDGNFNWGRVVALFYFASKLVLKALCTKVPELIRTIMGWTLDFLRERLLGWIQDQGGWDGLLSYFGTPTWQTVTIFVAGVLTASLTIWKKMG
Assay [8] has as its target proteins of HEK293T cells transiently overexpressing caspase-6 (Homo sapiens, UniProt O15355). The settings on record: exp_ref Probe; protein PPM1G (O15355); analysis C6.
Assay [9] deals with proteins of HEK293T cells transiently overexpressing caspase-6 (Homo sapiens, UniProt P50914). As to conditions: exp_ref Probe; protein RPL14 (P50914); analysis C6.

Where two headings read alike, the source gives them in different places.

Sequence of proteins of HEK293T cells transiently overexpressing caspase-6 (Homo sapiens, UniProt O15355) (O15355 whole entry): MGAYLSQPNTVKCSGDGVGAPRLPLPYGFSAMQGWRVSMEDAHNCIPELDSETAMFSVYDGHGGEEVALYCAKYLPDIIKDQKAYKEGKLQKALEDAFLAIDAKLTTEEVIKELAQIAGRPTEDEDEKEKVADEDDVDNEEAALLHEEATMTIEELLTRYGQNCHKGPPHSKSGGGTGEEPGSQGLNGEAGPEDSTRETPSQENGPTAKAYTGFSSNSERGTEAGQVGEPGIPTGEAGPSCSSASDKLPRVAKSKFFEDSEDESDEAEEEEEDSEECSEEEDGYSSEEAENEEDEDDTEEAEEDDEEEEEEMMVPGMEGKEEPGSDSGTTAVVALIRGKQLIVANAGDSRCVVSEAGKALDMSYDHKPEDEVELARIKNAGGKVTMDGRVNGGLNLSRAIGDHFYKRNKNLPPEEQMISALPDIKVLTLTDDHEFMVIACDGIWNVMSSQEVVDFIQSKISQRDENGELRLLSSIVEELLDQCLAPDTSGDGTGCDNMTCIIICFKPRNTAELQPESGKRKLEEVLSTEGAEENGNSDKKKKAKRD
Sequence of proteins of HEK293T cells transiently overexpressing caspase-6 (Homo sapiens, UniProt Q9NR30) (Q9NR30 whole entry): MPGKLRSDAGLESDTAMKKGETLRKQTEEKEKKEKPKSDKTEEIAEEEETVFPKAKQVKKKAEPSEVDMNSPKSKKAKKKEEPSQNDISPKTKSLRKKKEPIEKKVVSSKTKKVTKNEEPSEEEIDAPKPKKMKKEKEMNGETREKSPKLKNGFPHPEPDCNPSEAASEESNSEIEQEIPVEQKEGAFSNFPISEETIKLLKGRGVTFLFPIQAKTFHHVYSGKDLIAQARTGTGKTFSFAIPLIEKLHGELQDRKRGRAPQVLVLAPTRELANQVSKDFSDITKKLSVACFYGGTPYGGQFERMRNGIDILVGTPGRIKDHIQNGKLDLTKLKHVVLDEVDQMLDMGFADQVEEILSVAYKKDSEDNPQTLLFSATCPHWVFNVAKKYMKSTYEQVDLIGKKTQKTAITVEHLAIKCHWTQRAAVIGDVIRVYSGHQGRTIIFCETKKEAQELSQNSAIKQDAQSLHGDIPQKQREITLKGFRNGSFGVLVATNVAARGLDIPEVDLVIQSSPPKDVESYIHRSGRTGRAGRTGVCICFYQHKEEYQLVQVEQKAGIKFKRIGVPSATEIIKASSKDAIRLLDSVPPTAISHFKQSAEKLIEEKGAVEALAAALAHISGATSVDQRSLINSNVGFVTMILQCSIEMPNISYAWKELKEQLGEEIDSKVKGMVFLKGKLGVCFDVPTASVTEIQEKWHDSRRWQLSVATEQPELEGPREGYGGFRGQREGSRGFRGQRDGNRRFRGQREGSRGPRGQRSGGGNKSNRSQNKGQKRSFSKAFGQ

In the case of `C#CCOc1ccc([C@@H]2C[C@@H](C(=O)Nc3ccc(OC(F)(F)F)cc3)CN(S(=O)(=O)C=C)C2)cc1` (relative stereo) [13-t], the enrich.exp.med.lin in [1] amounted to 5.629; in assay [1] (Expt Probe, analysis C6), 5.629; in assay [2], 4.704; in [2] (Expt Probe, analysis C6) it was 4.704; in [3] it was 3.857. For the same molecule, the enrich.exp.med.log2 in assay [1] worked out at 2.493; in assay [1] (Expt Probe, analysis C6), 2.493; in [2], 2.234; in assay [2] (Expt Probe, analysis C6), 2.234; in assay [3] it was 1.948. Besides, the enrich.exp.med in assay [1] (exp_ref Probe, analysis C6) came out at 2.493; in assay [2] (exp_ref Probe, analysis C6) it was 2.234; in assay [3] (exp_ref Probe, analysis C6), 1.948; in assay [4], 0.5934; in [5] it was 0.5148; in assay [6] it was 0.01987. Besides, the enrich.exp.med in assay [7] is -2.1832; in assay [8], -0.08092; in [9], 0.5362.
